US4579865A, “Benzofuranyl carbamates” (USV Pharmaceutical Corp., priority 1984, dated 1986)

What was measured:
rat adipocyte lipolysis = assay: Rat adipocyte assay (epinephrine-stimulated lipolysis, glycerol release); type: cell-based; conditions: rat adipocytes, epinephrine 3 μM plus methylisobutylxanthine 10 μM, 1 hour 37° C., read-out: Adipocyte I50
Description: Abdominal fat pads were removed from male rats weighing 200-250 grams and placed in Krebs-bicarbonate buffer gassed with 95% O2 /5% CO2. The fat pads were digested with collagenase for 1 hour at 37° C., washed twice with Krebs-bicarbonate buffer and distributed among a set of 20 ml plastic counting vials. Two such vials received only buffer and cells (4 ml) but no agonists or antagonists. The remaining vials received epinephrine (3 μM) plus the phosphodiesterase inhibitor methylisobutylxanthine (10 μM). Test compounds were dissolved in DMSO or water to a concentration of […] and 40 μl was added to the buffer plus cells in the counting vials. The final compound concentration for routine screening was 200 μM (final concentration of DMSO=1%).
The cells were incubated for 1 hour at 37° C. under a 95% O2 /5% CO2 atmosphere. The incubation was stopped by placing the vials in crushed ice. The cells and medium were transferred to test tubes, centrifuged and the cell layer removed by aspiration. The aqueous phase was assayed for glycerol using the enzyme glycerol dehydrogenase. The glycerol dihydrogenase assay for glycerol depends on the enzyme catalyzed conversion of glycerol to glyceraldehyde and NAD to NADH. The assay can detect as little as 5-10 nanomoles of glycerol. The aqueous phase, following removal of cells, usually contained about 50 to 80 nanomoles of glycerol per 300 μl of assayed sample if no inhibitory activity was present. Samples from the control tubes (no agonist) usually contained 0-5 nanomoles of glycerol per 300 μl of sample.

Canine cardiac lipases = assay: Myocardial lipase assay; type: biochemical; conditions: triolein emulsion, pH 6.8, read-out: Lipase I50
Description: All compounds were dissolved in DMSO (final concentration 3.0%) and tested in duplicate at a concentration of 100 μM. Canine cardiac lipases were obtained by extracting washed heart membranes with buffer plus heparin and a small amount of Triton X-100 detergent. Because these enzymes are only active at an oil-water interface, the enzyme reaction is run in an oil-water emulsion that contains triolein substrate, Tris buffer (50 mM, pH 6.8) and a small amount of bovine serum albumin (0.5%) added to stabilize the emulsion. A small amount of tritiated triolein was added to the unlabelled triolein substrate. Tritium-labelled oleic acid released by the lipases was extracted into hexane, separated from unreacted triolein and counted in a scintillation counter. Inhibitory agents reduce the amount of radioactivity appearing in the free fatty acid fraction isolated in the extraction procedure.

In Vivo Lipolysis = assay: In vivo lipolysis assay (serum unesterified fatty acids in fasted rats); design: species or system rat; conditions: 2 hours after drug

SMILES	IC50 (rat adipocyte lipolysis)	IC50 (Canine cardiac lipases)	In Vivo Lipolysis % Inhib. at mg/Kg (In Vivo Lipolysis; 100 mg/Kg i.p.)	In Vivo Lipolysis % Inhib. at mg/Kg (In Vivo Lipolysis; 100 mg/Kg p.o.)	In Vivo Lipolysis % Inhib. at mg/Kg (In Vivo Lipolysis; 25 mg/Kg p.o.)
COc1ccc(NC(=O)Oc2cccc3ocnc23)cc1 [Example 4, 4-Benzoxazoyl N-(4-methoxyphenyl)carbanamate]	2.4 µM	79 µM	40%		
COc1ccc(NC(=O)Oc2cccc3ccoc23)c(OC)c1 [Example 2, 7-Benzofuranyl N-(2,4-dimethoxy)phenyl carbamate]	0.3 µM	40 µM		71%	
O=C(NC1CCCCC1)Oc1cccc2ccoc12 [Example 3, 7-Benzofuranyl N-(cyclohexyl)carbamate]	12 µM	10 µM		26%	
COc1ccc(NC(=O)Oc2cccc3ccoc23)cc1 [Example 1, 7-Benzofuranyl N-(4-methoxyphenyl)carbamate]	0.3 µM	16 µM			97%
